Data as given in patent US10648917B2, “Luminescent compositions and applications thereof” (THE PENN STATE RESEARCH FOUNDATION, priority 2015, dated 2020).

test: Fluorescence spectra, absorbance and quantum yield (spectrofluorometer, integration sphere); format: physicochemical; details: CFD dyes
Description: Fluorescence spectra were recorded by a Horiba FluoroMax-4 spectrofluorometer. All polymer and small molecule samples were measured at a concentration of 2% w/w in 1,4-dioxane or DI water and a slit size of 1 nm by 1 nm unless otherwise specified. Quantum yields were also determined on the same spectrofluorometer by using a Quantum-φ integration sphere at the same concentration and slit size with the blank solvent as the reference. ^1H-NMR, ^13C-NMR were performed on a JNM ECS 300 spectrometer using DMSO-d6 or D2O as solvents. Attenuated total reflection Fourier transform infrared (ATR-FTIR) spectra were collected with a Bruker V70 spectrometer using BPLP films. A Shimadzu HPLC-MS system with a Phenomenex Kinetex 2.6u XB-C18 100 mm×2.9 mm column, a SPD M20A PDA detector and a RF-20AXS fluorescence detector (Ex. 360 nm and Em. 430 nm) was used to characterize the structures of fluorophores as well. The mobile phase was a gradient of DI water and acetonitrile with 0-6 min 2% acetonitrile, 6-12 min 2%-30% acetonitrile, and 12-15 min 2% acetonitrile. The flow rate was 0.15 ml/min. Electrospray ionization mass spectroscopy (ESI-MS) was performed with a positive voltage of 4.5 kV and negative mode voltage −4.0 kV and a CDL temperature of 200° C. The analysis of the degradation products of BPLPs were conducted by immersing BPLPs in 1M K2CO3 solution at 37° C. for 24 hours. After degradation, the solutions were neutralized by 1N HCl solution to pH 7 and characterized by HPLC-MS as described above.
Fluorescence spectra were recorded by a Horiba FluoroMax-4 spectrofluorometer. All samples were measured at a concentration corresponding to an optical density of 0.1 in water and a slit size of 1 nm by 1 nm unless specified. Quantum yields were also determined on same spectrofluorometer by using a Quantum-φ integration sphere at samples' maximum excitation wavelength and at an increment of 0.3 nm. Photostability studies were done by continuously exciting samples at their maximum excitation wavelength and monitoring at the maximum emission wavelength.
Fluorescence spectra were recorded on a Horiba FluoroMax-4 spectrofluorometer (Horiba Scientific, Edison N.J.). All polymer and samples were characterized at a concentration of 2 wt % in 1,4-dioxane and a slit size of 1 nm by 1 nm unless otherwise specified. The fluorescence properties of small molecule dyes were also measure in 2 wt % DI water solutions at same conditions as polymer solutions. BPLPs were also degraded in 1M K2CO3 solution at 37° C. for 24 hours and then neutralized with 1N HCl solution to pH7. The resulting degradation solutions were subject to further PL characterizations. Quantum yields were also determined on the same spectrofluorometer by using a Quantum-φ integration sphere (Horiba Scientific, Edison N.J.) at the same concentration and slit size with the blank solvent as the reference. Photostability of small molecules and polymers were determined by monitoring the emission intensity decay at their max. Excitation and emission wavelengths over 3 hours of continuous lumination in the spectrofluorometer.
Absorbance Spectra were recorded on Tecan Infinite M200 Pro UV-vis spectroscopy, and fluorescence spectra were recorded on Horiba FluoroMax-4 fluorospectroscopy at concentrations below 0.1 O.D. unless otherwise indicated. Quantum Yields were measured on the Quantum φ Integrating Sphere accessory to the FluoroMax-4, while lifetime measurements were determined through the Time-Correlation Single Photon Counting (TCSPC) accessory to the FluroMax-4. TCSPC was utilized in conjunction with NanoLED pulsed diode light source with peak excitation wavelength at 352 nm and at 10,000 counts peak preset. Emission was collected at the fluorescence λmax, unless otherwise indicated. For all pH-dependence experiments, sample pH was adjusted with sulfuric acid or sodium hydroxide. For all chloride-dependent quenching experiments, magnesium chloride hexahydrate (Sigma Aldrich) was used.

Compound | Shifting (emission shifting with excitation wavelength)
NCCN1C(=O)C=C(C(=O)O)CC1=O [CA-EDA] | Yes

same assay, conditions: Table III

Φ (quantum yield) | λem (maximum emission wavelength) | λex (maximum excitation wavelength) | ϵ (extinction coefficiency) | Compound
12.7% | 423 nm | 358 nm | 7.8 M⁻¹ cm⁻¹ | O=C(O)C1=CC(=O)N(C(Cc2ccccc2)C(=O)O)C(=O)C1 (stereo not drawn) [CA-Phenylalanine]
5% | 445 nm | 386 nm | 14.6 M⁻¹ cm⁻¹ | O=C(O)C1=CC(=O)N(C(CC2=c3ccccc3=NC2)C(=O)O)C(=O)C1 (stereo not drawn) [CA-Tryptophan]
4.2% | 440 nm | 369 nm | 437.9 M⁻¹ cm⁻¹ | O=C(O)C1=CC(=O)N(C(CO)C(=O)O)C(=O)C1 (stereo not drawn) [CA-Serine]
78.6% | 436 nm | 386 nm | 418 M⁻¹ cm⁻¹ | CC1Oc2cc(C(=O)O)cc(=O)n2C1C(=O)O (stereo not drawn) [CA-Threonine]
22.1% | 422 nm | 355 nm | 4.9 M⁻¹ cm⁻¹ | O=C(O)CCCN1C(=O)C=C(C(=O)O)CC1=O [CA-γ-Aminobutyric acid]
70.8% | 445 nm | 375 nm | 109.2 M⁻¹ cm⁻¹ | O=C(O)c1cc2n(c(=O)c1)C(C(=O)O)CCS2 (stereo not drawn) [CA-Homocysteine]
17.2% | 430 nm | 357 nm | 5.6 M⁻¹ cm⁻¹ | CCC(C)C(C(=O)O)N1C(=O)C=C(C(=O)O)CC1=O (stereo not drawn) [CA-Isoleucine]
10.5% | 424 nm | 362 nm | 5.3 M⁻¹ cm⁻¹ | CSCCC(C(=O)O)N1C(=O)C=C(C(=O)O)CC1=O (stereo not drawn) [CA-Methionine]
17.5% | 428 nm | 361 nm | 5.3 M⁻¹ cm⁻¹ | CC(C)C(C(=O)O)N1C(=O)C=C(C(=O)O)CC1=O (stereo not drawn) [CA-Valine]
8.8% | 423 nm | 359 nm | 6.2 M⁻¹ cm⁻¹ | CC(C)CC(C(=O)O)N1C(=O)C=C(C(=O)O)CC1=O (stereo not drawn) [CA-Leucine]
8.6% | 431 nm | 359 nm | 11.4 M⁻¹ cm⁻¹ | NCCCCC(C(=O)O)N1C(=O)C=C(C(=O)O)CC1=O (stereo not drawn) [CA-Lysine]
0.2% | 423 nm | 355 nm | 6.1 M⁻¹ cm⁻¹ | CC(C(=O)O)N1C(=O)CC(C(=O)O)CC1=O (stereo not drawn) [TCA-Alanine]

Continued, compound first:

Compound | Φ (quantum yield) | λem (maximum emission wavelength) | λex (maximum excitation wavelength) | ϵ (extinction coefficiency)
O=C(O)c1cc(=O)n2c(c1)sc1ccccc12 [CA-2-Aminothiolphenol] | 98.5% | 439 nm | 396 nm | 877.8 M⁻¹ cm⁻¹
NC(CSSCC(C(=O)O)N1C(=O)C=C(C(=O)O)CC1=O)C(=O)O (stereo not drawn) [CA-Cystine] | 15% | 430 nm | 367 nm | 11.6 M⁻¹ cm⁻¹
NCCCCCCN1C(=O)C=C(C(=O)O)CC1=O [CA-Hexamethylenediamine] | 11.5% | 426 nm | 357 nm | 9.4 M⁻¹ cm⁻¹
NCCN1C(=O)C=C(C(=O)O)CC1=O [CA-EDA] | 9.2% | 440 nm | 377 nm | 828.3 M⁻¹ cm⁻¹
O=C(O)CC(C(=O)O)N1C(=O)C=C(C(=O)O)CC1=O (stereo not drawn) [CA-Aspartic Acid] | 19.7% | 427 nm | 356 nm | 6.8 M⁻¹ cm⁻¹
Nc1ccc(N2C(=O)C=C(C(=O)O)CC2=O)cc1 [CA-Phenylenediamine] | 4.5% | 433 nm | 360 nm | 12.1 M⁻¹ cm⁻¹
NC(=O)CC(C(=O)O)N1C(=O)C=C(C(=O)O)CC1=O (stereo not drawn) [CA-Asparagine] | 23.8% | 440 nm | 378 nm | 35.5 M⁻¹ cm⁻¹
CC(CC(=O)O)N1C(=O)C=C(C(=O)O)CC1=O (stereo not drawn) [CA-3-Aminobutanoic Acid] | 8.8% | 430 nm | 356 nm | 6.3 M⁻¹ cm⁻¹
N=C(N)NCCCC(C(=O)O)N1C(=O)C=C(C(=O)O)CC1=O (stereo not drawn) [CA-Arginine] | 15.5% | 451 nm | 382 nm | 11.6 M⁻¹ cm⁻¹
NC(=O)CCC(C(=O)O)N1C(=O)C=C(C(=O)O)CC1=O (stereo not drawn) [CA-Glutamine] | 7.3% | 448 nm | 383 nm | 102.4 M⁻¹ cm⁻¹
O=C(O)C1=CC(=O)N(c2ccc(S)cc2)C(=O)C1 [CA-4-Aminothiolphenol] | 14.1% | 437 nm | 396 nm | 19.6 M⁻¹ cm⁻¹

same assay, conditions: representative CFDs, Table I

Compound | Max. Em. Wavelength | Max. Ex. Wavelength | Quantum Yield
NCCN1C(=O)C=C(C(=O)O)CC1=O [CA-EDA] | 440 nm | 377 nm | 9.2%
